In brackets after ≈: the same amount, converted by molar mass.
Key:
Format in all cases: functional
[1] = tested on: Mycobacterium tuberculosis; assay: Effective concentration required to reduce CFU of Mycobacterium tuberculosis Erdman (ATCC 35801) strain was determined in monolayers of mouse bone marrow macrophages; […]
[2] = tested on: Mycobacterium tuberculosis; assay: Effective concentration required to reduce CFU of Mycobacterium tuberculosis Erdman (ATCC 35801) strain was determined in monolayers of mouse bone marrow macrophages; Range is 0.5-1.5
[3] = tested on: Mycobacterium tuberculosis; assay: Minimum bactericidal concentration required against Mycobacterium tuberculosis H37Rv strain was determined in monolayers of mouse bone marrow macrophages
[4] = tested on: Mycobacterium tuberculosis; assay: Effective concentration required compared to that of Minimum inhibition concentration required against Mycobacterium tuberculosis H37Rv strain was determined; Range is 0.6-1.2
[5] = tested on: Mycobacterium tuberculosis; assay: Effective concentration required to reduce CFU of Mycobacterium tuberculosis Erdman (ATCC 35801) strain was determined in monolayers of mouse bone marrow macrophages

| Compound | EC90 [1] [µg/mL] | EC99 [2] [µg/mL] | MBC [3] [µg/mL] | EC90/MIC [4] | EC90 [5] [µg/mL] | EC99 [5] [µg/mL] |
| --- | --- | --- | --- | --- | --- | --- |
| CO[C@H]1/C=C/O[C@@]2(C)Oc3c(C)c(O)c4c(O)c(c(/C=N/N5CCN(C)CC5)c(O)c4c3C2=O)NC(=O)/C(C)=C\C=C\[C@H](C)[C@H](O)[C@@H](C)[C@@H](O)[C@@H](C)[C@H](OC(C)=O)[C@@H]1C [RIFAMPIN] | 0.1 (≈ 0.122 µM) | 1.5 | – | – | – | – |
| NNC(=O)c1ccncc1 [ISONIAZID] | – | – | 0.1 (≈ 0.729 µM) | 1.2 | 0.03 (≈ 0.219 µM) | 0.42 |

Reference: ChEMBL document CHEMBL1138642, “In vitro advanced antimycobacterial screening of cobalt(II) and copper(II) complexes of fluorinated isonicotinoylhydrazones” (2004)
